# Measured values reported in patent US6239107A, “Conjugates of lipophilic moieties and fragments of vasoactive intestinal peptide (VIP)” (Yeda Research & Development Co., Ltd., priority 1996, dated 2001).
# Non-standard residues stand in square brackets, D forms with d. Residues, ends and D or L forms follow the SMILES beside them. *: point of attachment. Stearoyl = CCCCCCCCCCCCCCCCCC(=O)*; Lauroyl = CCCCCCCCCCCC(=O)*
# Tests used:
# [1] = system: male rats (Wistar) injected i.c.v. with the cholinergic blocker AF64A; details: rat, in vivo
# Experimental: In vivo Model for Cholinergic Inhibition. 18 Male rats (Wistar, 250-300 g) were injected intracerebroventricularly (i.c.v.) at a rate of 0.21 μl/min., using plastic tubing (PE-20) attached to 25G needle; controls received an injection of saline 2 μl/side, experimental animals received injections of the cholinergic blocker (ethylcholine aziridium) AF64A (3 nmol/2 μl/side).
# Drug treatment was initiated 7-10 days after AF64A injection. Animals were divided into two equal groups. Test group received daily nasal administration of St-Lys-Lys-Tyr-Leu-NH2 (SEQ ID NO:6) dissolved in 10% Sefsol™ and 40% isopropanol at a concentration of 10 μg/40 μl (20 μl administered through each nostril). […]
# Rats were placed in a circular pool, 1.26 m in diameter, 0.2 m deep, equipped with a clear plexiglas column, with a 13.3 cm platform reaching just below the surface of the water (22-24° C). […] The latency of reaching the platform was recorded for each rat (in seconds) and the changes over days of training were graphed, which reflect learning and memory.
# FIG. 3 depicts the effects of St-Lys-Lys-Tyr-D-Ala-NH2 (indicated KKYO in the figure) on learning and memory in the Alzheimer's in vivo test (AF64A-cholinotoxicity test) as described above. […] Following this test the platform is placed back in the water pool, but this time it is visible to the swimming rat and the time required to reach it is measured. […]
# [2] = Biodistribution to brain after intranasal application of radioiodinated conjugate; type: in vivo, rat; details: thirty minutes after application, FIG. 15
# Experimental: St-Lys-Lys-Tyr-Leu-NH2 (SEQ ID NO:6) was radioiodinated by using the chloramine T methods as described in Gozes et al., Endocrinology, 134:2121-2125 (1994) and about 7.8×10^6 cpm/2 μl 5% Sefsol™, 20% isopropanol/rat were applied intranasally to 250-300 g rats. Animals were sacrificed 30 minutes following drug administration and the frontal cortex was removed, weighed and counted for radioactivity in a gamma counter. Radioactive tissue samples (containing 1400 cpm/gram sample) were thereafter homogenized and subjected to centrifugation (5,400 g for 25 min.). Supernatants were then subjected to HPLC analysis against St-Lys-Lys-Tyr-Leu-NH2 (SEQ ID NO:6) as a marker (eluting using an acetonitrile gradient at fraction 25). Samples were monitored for radioactivity in a gamma counter.
# [3] = system: Apolipoprotein E-deficient newborn mice; assay: Acquisition of developmental milestones in a model for mental retardation; type: in vivo; details: ApoE deficient newborn mice, s.c. injection
# Experimental: It has recently been discovered that mice deficient in apolipoprotein E (ApoE) (Plump et al., Cell, 71:343-363 (1992)) are retarded in their acquisition of developmental milestones.
# 8 newborn normal mice were injected (s.c. 1.2 μg 120 μu) with St-Lys-Lys-Tyr-Leu-NH2 or with saline. 8 ApoE deficient newborn mice were treated similarly.
# [4] = same amounts of radiolabeled conjugate; Gozes et al., Endocrinology 134:2121-2125 (1994); cited from earlier work
# [5] = system: rat cerebral cortical cell cultures (neurons) treated with β-amyloid peptide (amino acids 25-35); assay: Neuronal survival assay, protection against β-amyloid toxicity; type: cell-based; details: 5 days
# Experimental: β-Amyloid peptide is known to be involved in Alzheimer's disease and is a toxic substance to neurons grown in culture (Pike et al., J. of Nezarosci., 13(4), 1676-1687 (1993); Yankner et al., Science, 250:279-282 (1990); Gozes et. al., Proc. Natl. Acad. Sci. USA, 93:[…] (1996)).
# Rat cerebral cortical cell cultures were prepared by a slight modification of the techniques described by Forsythe and Westbrook (J. Physiol. Lord. 365:515, (1988)), in which cerebral cortex was used instead of hippocampus and newborn rats were utilized instead of E16 mice. Cerebral cortical cells (1.5-15×10^5 cells/35 mm dish) were plated on confluent cerebral cortical astrocyte feeder cultures as described (Gozes et al., J. Pharmacol Erp. Therap., 257:959-966 (1991)). The culture medium was DMEM-(Dulbeco Modified Eagle Medium) containing 5% horse serum and N3 [media supplement containing a hormone cocktail, according to (Romijn et al., Brain Res., 254:(4),583-589 (1981))]. After eight days growth in vitro, the cultures were given a complete change of medium and then were treated with the β-amyloid peptide (amino acids 25-35) for 5 days.
# The β-amyloid peptide fragment was dissolved in water to a finalconcentration of 2.5 mM. […] Neurons were counted without knowledge of type of treatment as before. […]
compound,measurement,setting,value
CCCCCCCCCCCCCCCCCC(=O)N[C@@H](CCCCN)C(=O)N[C@@H](CCCCN)C(=O)N[C@@H](Cc1ccc(O)cc1)C(=O)N[C@H](C)C(N)=O [St-Lys-Lys-Tyr-D-Ala-NH2] (Stearoyl-KKY[dA]-NH2),time required to reach the visible platform (possible motor deficits),[1],no differences between the groups
CCCCCCCCCCCCCCCCCC(=O)N[C@@H](CCCCN)C(=O)N[C@@H](CCCCN)C(=O)N[C@@H](Cc1ccc(O)cc1)C(=O)N[C@@H](CC(C)C)C(N)=O [St-Lys-Lys-Tyr-Leu-NH2] (Stearoyl-KKYL-NH2),intact conjugate in brain extract by HPLC,[2],could be observed in the brain
St-Nle^17 -VIP-NH2,forelimb placing behavior acquisition,"[3]; versus untreated ApoE deficient mice, FIGS. 10 and 11",improved their placing acquisition essentially to the level of control
same,cliff avoidance acquisition,[3]; FIGS. 12 and 13,even better cliff avoidance acquisition than normal controls or similar cliff avoidance behavior to control
same,radioactivity obtained in the intestine,[4],3700 cpm/g
CCCCCCCCCCCC(=O)N[C@@H](CCCCN)C(=O)N[C@@H](CCCCN)C(=O)N[C@@H](Cc1ccc(O)cc1)C(=O)N[C@@H](CC(C)C)C(N)=O [Lau-Lys-Lys-Tyr-Leu-NH2] (Lauroyl-KKYL-NH2),Active concentration (M),"[5]; added together with 25 μM β-amyloid peptide (25-35), NSE-stained neuron counts",10^-11 -10^-10 M
same,Neuronal survival (%),"[5]; at the active concentration, with 25 μM β-amyloid peptide (25-35), as compared to control",83-84%
